Data on seven compounds can be found in patent US5334757A, “2-(2,3-dicarboxycyclopropyl) glycine and method for producing the same” (Suntory Limited, priority 1991, dated 1994).

The structures appear in SMILES notation. “Also recorded” adds a separate entry of the source. Like-named read-outs stand apart in the source and are kept apart here.

One experiment relates to non-NMDA type receptors. The conditions noted are these: Tetrahedron Letters 31 (28), 4049-4052 (1990); Brain Res. 550, 152-156 (1991); cited from earlier work.
For the next experiment, the system named is NMDA type receptors. The note with it: Japanese Patent Laid-Open No. 093563/1991; cited from earlier work.
The test system of experiment [1] is monosynaptic reflex in the newborn rat spinal cord preparation. The conditions noted are these: reported value for Baclofen, cited from earlier work.
A further experiment relates to NMDA receptors. Kind of experiment: Depolarization under perfusion with CPP (NMDA receptor agonism). The note with it: for depolarization on adding CPP: 3×10^-5 M CPP perfused; for NMDA type agonistic activity: electrophysiological assay, newborn rat spinal cord preparation. Format: cell-based, newborn rat.
The test system of experiment [2] is newborn rat spinal cord preparation. Nature of the experiment: Measurement of depolarizing activity, newborn rat spinal cord preparation. Format: cell-based. The conditions noted are these: relative to L-glutamic acid = 1.
Experiment [3] relates to monosynaptic reflex in the newborn rat spinal cord preparation. Kind of experiment: Determination of monosynaptic reflex inhibition activity in the newborn rat spinal cord preparation. The note with it: for concentration inhibiting (50%) monosynaptic reflex relative to the IC50 of Baclofen: as multiple of IC50 of Baclofen; for monosynaptic reflex inhibition (in words) / IC50: newborn rat spinal cord preparation; for IC50: read-out: IC50 (50% inhibitory concentration), monosynaptic reflex inhibition. Further details: species or system newborn Wister rat. As for the experimental part: The spinal cord of a newborn Wister rat was taken out, as encircled by the spinal column, under etherization.
A single stimulation was applied to a posterior root via a suction electrode and the anterior root reflection potential of the corresponding anterior root was recorded.
DCG-I and DCG-II at various concentration were added to the perfusion solution and the monosynaptic reflexes thus caused were measured.

With `N[C@H](C(=O)O)[C@@H]1[C@@H](COCc2ccccc2)[C@@H]1C(=O)O` [(2S,1'R,2'R,3'R)-2-(2-carboxy-3-benzyloxymethylcyclopropyl)glycine], in the experiment with non-NMDA type receptors, the “non-NMDA type agonist activity” value was “agonists of the non-NMDA type”.

Regarding `COC[C@H]1[C@H](C(=O)O)[C@@H]1[C@H](N)C(=O)O` [(2S,1'R,2'R,3'R)-2-(2-carboxy-3-methoxymethylcyclopropyl)glycine], the “non-NMDA type agonist activity” value with non-NMDA type receptors is reported as “agonists of the non-NMDA type”.

`N[C@H](C(=O)O)[C@@H]1C[C@@H]1C(=O)O` [(2S,1'R,2'S)-2-(2-carboxycyclopropyl)glycine]: in the experiment with NMDA type receptors, the “NMDA type agonist activity” value was “potent agonist of the NMDA type superior to NMDA”.

Take `NCC(CC(=O)O)c1ccc(Cl)cc1` (stereo not drawn) [Baclofen]: the IC50 in experiment [1] (in nM) and in experiment [1] was about 500 nM throughout.

Take `N[C@H](C(=O)O)C1[C@@H](C(=O)O)[C@@H]1C(=O)O` (stereo partly drawn) [DCG-I, (2S,1'R,2'R,3'R)-2-(2,3-dicarboxycyclopropyl)glycine]: in the experiment on NMDA receptors, the “depolarization on adding CPP” value is “completely inhibited” and the “NMDA type agonistic activity” value is “agonists for NMDA receptors; also recorded: agonist of the NMDA type”. For the same compound, the Activity ratio in experiment [2] was 33. For the same compound, in experiment [3], the “concentration inhibiting (50%) monosynaptic reflex relative to the IC50 of Baclofen” value was “about 1/20”, the “monosynaptic reflex inhibition (in words)” value was “selectively inhibit monosynaptic reflex even at a low concentration” and the IC50 was 0.06 µM.

Regarding `N[C@H](C(=O)O)C1[C@H](C(=O)O)[C@H]1C(=O)O` (stereo partly drawn) [DCG-II, (2S,1'S,2'S,3'S)-2-(2,3-dicarboxycyclopropyl)glycine], in the experiment with NMDA receptors, the “depolarization on adding CPP” value was “completely inhibited” and the “NMDA type agonistic activity” value is “agonists for NMDA receptors; also recorded: only a week agonistic activity of the NMDA type”. The Activity ratio in experiment [2] came out at 0.5. In experiment [3], the “concentration inhibiting (50%) monosynaptic reflex relative to the IC50 of Baclofen” value was “twice”, the “monosynaptic reflex inhibition (in words)” value is on record as “selectively inhibit monosynaptic reflex even at a low concentration” and the IC50 amounted to 1 µM.

On to `N[C@@H](CCC(=O)O)C(=O)O` [L-glutamic acid, reference compound], for which the Activity ratio in experiment [2] is 1.
